# Assay results published in PubChem BioAssay AID1918934 (Molecular Pharmacology Branch, DTP, NCI, 2023).
# System: 292921-168-R-J2-PDC complex spheroid viability
# Assay: Anticancer human tumor 292921-168-R-J2-PDC patient-derived pancreatic carcinoma cell line growth inhibition
# Conditions: for IC50: curve of first compound; for viability, T/C: stronger effect = lower value
# Method in brief: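 Multicellular complex spheroids of tumor cells with human endothelial cells (HUVEC) and mesenchymal stem cells; the LSD1 inhibitor iadademstat was combined with standard-of-care or investigational agents. Top concentration at or near clinical Cmax, half-log dilutions; final DMSO ≤0.25%.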
# 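Note: seven day compound exposure before luminescent viability read.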
# 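Throughout, for viability, T/C: 100% = DMSO vehicle control wells.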
compound,measurement,setting,value
Nc1ncn(C2CC(O)C(CO)S2)c(=O)n1 (stereo not given) + NC1CC1c1ccc(-c2cccc(O)c2)cc1,IC50,second compound 0.1 µM,61.3 nM
same,IC50,second compound 0.316 µM,53.1 nM
same,IC50,second compound 1 µM,50.3 nM
same,IC50,second compound 3.16 µM,40 nM
same,IC50,second compound 10 µM,36.5 nM
same,"viability, T/C","second compound 0.1 µM, first compound 0.000949 µM",83%
same,"viability, T/C","second compound 0.1 µM, first compound 0.003 µM",80.8%
same,"viability, T/C","second compound 0.1 µM, first compound 0.00949 µM",73.2%
same,"viability, T/C","second compound 0.1 µM, first compound 0.03 µM",62.2%
same,"viability, T/C","second compound 0.1 µM, first compound 0.0949 µM",42.7%
same,"viability, T/C","second compound 0.1 µM, first compound 0.3 µM",11.5%
same,"viability, T/C","second compound 0.316 µM, first compound 0.000949 µM",66.8%
same,"viability, T/C","second compound 0.316 µM, first compound 0.003 µM",73.2%
same,"viability, T/C","second compound 0.316 µM, first compound 0.00949 µM",63.9%
same,"viability, T/C","second compound 0.316 µM, first compound 0.03 µM",63.1%
same,"viability, T/C","second compound 0.316 µM, first compound 0.0949 µM",37.3%
same,"viability, T/C","second compound 0.316 µM, first compound 0.3 µM",13.3%
same,"viability, T/C","second compound 1 µM, first compound 0.000949 µM",63.9%
same,"viability, T/C","second compound 1 µM, first compound 0.003 µM",67%
same,"viability, T/C","second compound 1 µM, first compound 0.00949 µM",74.4%
same,"viability, T/C","second compound 1 µM, first compound 0.03 µM",56.9%
same,"viability, T/C","second compound 1 µM, first compound 0.0949 µM",38.5%
same,"viability, T/C","second compound 1 µM, first compound 0.3 µM",12.8%
same,"viability, T/C","second compound 3.16 µM, first compound 0.000949 µM",67.5%
same,"viability, T/C","second compound 3.16 µM, first compound 0.003 µM",66.8%
same,"viability, T/C","second compound 3.16 µM, first compound 0.00949 µM",62.6%
same,"viability, T/C","second compound 3.16 µM, first compound 0.03 µM",55.1%
same,"viability, T/C","second compound 3.16 µM, first compound 0.0949 µM",36%
same,"viability, T/C","second compound 3.16 µM, first compound 0.3 µM",12.8%
same,"viability, T/C","second compound 10 µM, first compound 0.000949 µM",55.2%
same,"viability, T/C","second compound 10 µM, first compound 0.003 µM",62%
same,"viability, T/C","second compound 10 µM, first compound 0.00949 µM",59.9%
same,"viability, T/C","second compound 10 µM, first compound 0.03 µM",52.8%
same,"viability, T/C","second compound 10 µM, first compound 0.0949 µM",33.6%
same,"viability, T/C","second compound 10 µM, first compound 0.3 µM",15.5%
O=C(C=Cn1cnc(-c2cc(C(F)(F)F)cc(C(F)(F)F)c2)n1)NNc1cnccn1 + NC1CC1c1ccc(-c2cccc(O)c2)cc1,IC50,second compound 0.1 µM,3.26 nM
same,IC50,second compound 0.316 µM,3.41 nM
same,IC50,second compound 1 µM,< 3.16 nM
same,IC50,second compound 3.16 µM,4.57 nM
same,IC50,second compound 10 µM,3.76 nM
same,"viability, T/C","second compound 0.1 µM, first compound 0.00316 µM",48.3%
same,"viability, T/C","second compound 0.1 µM, first compound 0.01 µM",49.7%
same,"viability, T/C","second compound 0.1 µM, first compound 0.0316 µM",26.2%
same,"viability, T/C","second compound 0.1 µM, first compound 0.1 µM",12.7%
same,"viability, T/C","second compound 0.1 µM, first compound 0.316 µM",7.08%
same,"viability, T/C","second compound 0.1 µM, first compound 1 µM",6.49%
same,"viability, T/C","second compound 0.316 µM, first compound 0.00316 µM",50%
same,"viability, T/C","second compound 0.316 µM, first compound 0.01 µM",45%
same,"viability, T/C","second compound 0.316 µM, first compound 0.0316 µM",22.3%
same,"viability, T/C","second compound 0.316 µM, first compound 0.1 µM",11.1%
same,"viability, T/C","second compound 0.316 µM, first compound 0.316 µM",7.37%
same,"viability, T/C","second compound 0.316 µM, first compound 1 µM",6.26%
same,"viability, T/C","second compound 1 µM, first compound 0.00316 µM",47.8%
same,"viability, T/C","second compound 1 µM, first compound 0.01 µM",42.7%
same,"viability, T/C","second compound 1 µM, first compound 0.0316 µM",23%
same,"viability, T/C","second compound 1 µM, first compound 0.1 µM",11.8%
same,"viability, T/C","second compound 1 µM, first compound 0.316 µM",6.36%
same,"viability, T/C","second compound 1 µM, first compound 1 µM",6.66%
same,"viability, T/C","second compound 3.16 µM, first compound 0.00316 µM",51.8%
same,"viability, T/C","second compound 3.16 µM, first compound 0.01 µM",46%
same,"viability, T/C","second compound 3.16 µM, first compound 0.0316 µM",24%
same,"viability, T/C","second compound 3.16 µM, first compound 0.1 µM",14.4%
same,"viability, T/C","second compound 3.16 µM, first compound 0.316 µM",7.81%
same,"viability, T/C","second compound 3.16 µM, first compound 1 µM",7.38%
same,"viability, T/C","second compound 10 µM, first compound 0.00316 µM",50.7%
same,"viability, T/C","second compound 10 µM, first compound 0.01 µM",46.3%
same,"viability, T/C","second compound 10 µM, first compound 0.0316 µM",33.5%
same,"viability, T/C","second compound 10 µM, first compound 0.1 µM",17.6%
same,"viability, T/C","second compound 10 µM, first compound 0.316 µM",9.43%
same,"viability, T/C","second compound 10 µM, first compound 1 µM",8.53%
